From the NIST ThermoML archive (doi:10.1016/j.fluid.2016.02.009)
Numbers after ± are expanded uncertainties.

Conditions: Liquid, Vibrating tube method

CCCOCCC [dipropyl ether]
Conditions	mass density [kg/m3]
283.15 K, 100 kPa	757.39 ± 0.3
283.15 K, 5000 kPa	762.38 ± 0.33
283.15 K, 10000 kPa	767.05 ± 0.36
283.15 K, 15000 kPa	771.45 ± 0.39
283.15 K, 20000 kPa	775.62 ± 0.43
283.15 K, 25000 kPa	779.52 ± 0.46
283.15 K, 30000 kPa	783.28 ± 0.49
283.15 K, 35000 kPa	786.9 ± 0.53
283.15 K, 40000 kPa	790.38 ± 0.56
283.15 K, 45000 kPa	793.67 ± 0.6
283.15 K, 50000 kPa	796.87 ± 0.63
283.15 K, 55000 kPa	800.02 ± 0.66
283.15 K, 60000 kPa	802.99 ± 0.69
283.15 K, 65000 kPa	805.87 ± 0.72
288.15 K, 100 kPa	752.52 ± 0.3
288.15 K, 5000 kPa	757.69 ± 0.33
288.15 K, 10000 kPa	762.5 ± 0.36
288.15 K, 15000 kPa	767.01 ± 0.4
288.15 K, 20000 kPa	771.21 ± 0.43
288.15 K, 25000 kPa	775.22 ± 0.46
288.15 K, 30000 kPa	779.05 ± 0.49
288.15 K, 35000 kPa	782.73 ± 0.53
288.15 K, 40000 kPa	786.26 ± 0.57
288.15 K, 45000 kPa	789.68 ± 0.6
288.15 K, 50000 kPa	792.99 ± 0.64
288.15 K, 55000 kPa	796.16 ± 0.67
288.15 K, 60000 kPa	799.26 ± 0.7
288.15 K, 65000 kPa	802.29 ± 0.73
293.15 K, 100 kPa	747.63 ± 0.3
293.15 K, 5000 kPa	752.98 ± 0.33
293.15 K, 10000 kPa	757.94 ± 0.36
293.15 K, 15000 kPa	762.58 ± 0.4
293.15 K, 20000 kPa	766.89 ± 0.43
293.15 K, 25000 kPa	771.01 ± 0.46
293.15 K, 30000 kPa	774.94 ± 0.5
293.15 K, 35000 kPa	778.69 ± 0.54
293.15 K, 40000 kPa	782.3 ± 0.57
293.15 K, 45000 kPa	785.81 ± 0.61
293.15 K, 50000 kPa	789.18 ± 0.64
293.15 K, 55000 kPa	792.44 ± 0.68
293.15 K, 60000 kPa	795.56 ± 0.71
293.15 K, 65000 kPa	798.64 ± 0.74
298.15 K, 100 kPa	742.71 ± 0.3
298.15 K, 5000 kPa	748.24 ± 0.33
298.15 K, 10000 kPa	753.37 ± 0.37
298.15 K, 15000 kPa	758.15 ± 0.4
298.15 K, 20000 kPa	762.57 ± 0.43
298.15 K, 25000 kPa	766.81 ± 0.47
298.15 K, 30000 kPa	770.85 ± 0.5
298.15 K, 35000 kPa	774.71 ± 0.54
298.15 K, 40000 kPa	778.42 ± 0.58
298.15 K, 45000 kPa	781.98 ± 0.62
298.15 K, 50000 kPa	785.42 ± 0.65
298.15 K, 55000 kPa	788.74 ± 0.69
298.15 K, 60000 kPa	791.97 ± 0.72
298.15 K, 65000 kPa	795.06 ± 0.75
303.15 K, 100 kPa	737.77 ± 0.3
303.15 K, 5000 kPa	743.49 ± 0.33
303.15 K, 10000 kPa	748.78 ± 0.37
303.15 K, 15000 kPa	753.68 ± 0.4
303.15 K, 20000 kPa	758.26 ± 0.44
303.15 K, 25000 kPa	762.61 ± 0.47
303.15 K, 30000 kPa	766.76 ± 0.51
303.15 K, 35000 kPa	770.7 ± 0.55
303.15 K, 40000 kPa	774.48 ± 0.59
303.15 K, 45000 kPa	778.13 ± 0.62
303.15 K, 50000 kPa	781.64 ± 0.66
303.15 K, 55000 kPa	785.01 ± 0.69
303.15 K, 60000 kPa	788.28 ± 0.73
303.15 K, 65000 kPa	791.45 ± 0.76
308.15 K, 100 kPa	732.8 ± 0.3
308.15 K, 5000 kPa	738.69 ± 0.33
308.15 K, 10000 kPa	744.18 ± 0.37
308.15 K, 15000 kPa	749.22 ± 0.4
308.15 K, 20000 kPa	753.95 ± 0.44
308.15 K, 25000 kPa	758.41 ± 0.48
308.15 K, 30000 kPa	762.65 ± 0.51
308.15 K, 35000 kPa	766.7 ± 0.55
308.15 K, 40000 kPa	770.6 ± 0.59
308.15 K, 45000 kPa	774.31 ± 0.63
308.15 K, 50000 kPa	777.92 ± 0.67
308.15 K, 55000 kPa	781.37 ± 0.7
308.15 K, 60000 kPa	784.7 ± 0.74
308.15 K, 65000 kPa	787.86 ± 0.77
313.15 K, 100 kPa	727.8 ± 0.3
313.15 K, 5000 kPa	733.9 ± 0.33
313.15 K, 10000 kPa	739.57 ± 0.37
313.15 K, 15000 kPa	744.77 ± 0.41
313.15 K, 20000 kPa	749.62 ± 0.44
313.15 K, 25000 kPa	754.2 ± 0.48
313.15 K, 30000 kPa	758.55 ± 0.52
313.15 K, 35000 kPa	762.71 ± 0.56
313.15 K, 40000 kPa	766.68 ± 0.6
313.15 K, 45000 kPa	770.47 ± 0.64
313.15 K, 50000 kPa	774.17 ± 0.67
313.15 K, 55000 kPa	777.67 ± 0.71
313.15 K, 60000 kPa	781.06 ± 0.75
313.15 K, 65000 kPa	784.29 ± 0.78
318.15 K, 100 kPa	722.77 ± 0.3
318.15 K, 5000 kPa	729.04 ± 0.34
318.15 K, 10000 kPa	735.01 ± 0.37
318.15 K, 15000 kPa	740.33 ± 0.41
318.15 K, 20000 kPa	745.32 ± 0.45
318.15 K, 25000 kPa	750.04 ± 0.48
318.15 K, 30000 kPa	754.51 ± 0.52
318.15 K, 35000 kPa	758.76 ± 0.57
318.15 K, 40000 kPa	762.84 ± 0.61
318.15 K, 45000 kPa	766.72 ± 0.64
318.15 K, 50000 kPa	770.47 ± 0.68
318.15 K, 55000 kPa	774.07 ± 0.72
318.15 K, 60000 kPa	777.53 ± 0.75
318.15 K, 65000 kPa	780.73 ± 0.79
323.15 K, 100 kPa	717.7 ± 0.3
323.15 K, 5000 kPa	724.25 ± 0.34
323.15 K, 10000 kPa	730.31 ± 0.37
323.15 K, 15000 kPa	735.84 ± 0.41
323.15 K, 20000 kPa	741 ± 0.45
323.15 K, 25000 kPa	745.84 ± 0.49
323.15 K, 30000 kPa	750.43 ± 0.53
323.15 K, 35000 kPa	754.79 ± 0.57
323.15 K, 40000 kPa	758.96 ± 0.61
323.15 K, 45000 kPa	762.93 ± 0.65
323.15 K, 50000 kPa	766.76 ± 0.69
323.15 K, 55000 kPa	770.41 ± 0.73
323.15 K, 60000 kPa	773.95 ± 0.76
323.15 K, 65000 kPa	777.21 ± 0.8
328.15 K, 100 kPa	712.59 ± 0.3
328.15 K, 5000 kPa	719.28 ± 0.34
328.15 K, 10000 kPa	725.68 ± 0.38
328.15 K, 15000 kPa	731.37 ± 0.41
328.15 K, 20000 kPa	736.67 ± 0.45
328.15 K, 25000 kPa	741.66 ± 0.49
328.15 K, 30000 kPa	746.37 ± 0.53
328.15 K, 35000 kPa	750.85 ± 0.58
328.15 K, 40000 kPa	755.1 ± 0.62
328.15 K, 45000 kPa	759.16 ± 0.66
328.15 K, 50000 kPa	763.06 ± 0.7
328.15 K, 55000 kPa	766.79 ± 0.73
328.15 K, 60000 kPa	770.38 ± 0.77
328.15 K, 65000 kPa	773.71 ± 0.81
333.15 K, 100 kPa	707.45 ± 0.3
333.15 K, 5000 kPa	714.57 ± 0.34
333.15 K, 10000 kPa	721.03 ± 0.38
333.15 K, 15000 kPa	726.88 ± 0.42
333.15 K, 20000 kPa	732.34 ± 0.46
333.15 K, 25000 kPa	737.47 ± 0.49
333.15 K, 30000 kPa	742.3 ± 0.54
333.15 K, 35000 kPa	746.89 ± 0.58
333.15 K, 40000 kPa	751.24 ± 0.62
333.15 K, 45000 kPa	755.35 ± 0.67
333.15 K, 50000 kPa	759.32 ± 0.7
333.15 K, 55000 kPa	763.16 ± 0.74
333.15 K, 60000 kPa	766.84 ± 0.78
333.15 K, 65000 kPa	770.23 ± 0.82
